Assay results: PubChem BioAssay (NCI)
Where “and” joins values, the source holds several entries; their conditions need not be identical. Equal values may be shown once.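 1) Cells in 96-well plates. 2) Compound, 48 h, 5 concentrations. 3) Linear interpolation between surrounding doses. 4) Unreached endpoint = highest concentration. GI50: concentration for 50% inhibition of growth. TGI marks complete inhibition of growth.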

Legend:
Experiment in all cases: DTP human tumour cell line panel, 48 h
[1] = system: HCT-116 colon
[2] = system: LOX IMVI melanoma
[3] = system: NCI-H226 lung
[4] = system: NCI-H23 lung
[5] = system: NCI-H460 lung
[6] = system: OVCAR-3 ovarian
[7] = system: SK-OV-3 ovarian
[8] = system: UACC-62 melanoma
[9] = system: DMS 114 small cell lung
[10] = system: DMS 273 small cell lung

Structure (SMILES) | GI50 [1] | TGI [1] | GI50 [2] | TGI [2] | GI50 [3] | TGI [3] | GI50 [4] | TGI [4] | GI50 [5] | TGI [5] | GI50 [6] | TGI [6] | GI50 [7] | TGI [7] | GI50 [8] | TGI [8] | TGI [9] | TGI [10] | GI50 [10]
O=C1Nc2ccc(I)cc2/C1=C/c1cc(Br)c(O)c(Br)c1 | > 17.2 µM and 15.2 µM | > 25 µM and 32.8 µM | > 17.5 µM and 16.2 µM | > 79 µM | > 25 µM and 27.8 µM | > 25 µM and 81.2 µM | > 17 µM and 18.1 µM | > 25 µM and 55 µM | > 17.4 µM and 17 µM | > 25 µM and 44.1 µM | > 12.5 µM and 16.7 µM | > 20.6 µM and 36.9 µM | > 25 µM and 17.9 µM | > 25 µM and 47.5 µM | 11.5 µM and 8.43 µM | > 25 µM and 29.6 µM |  |  | 
CCOc1ccc(/C=C/C(=O)c2sc(NNC(C)=O)nc2C)cc1 |  |  |  | > 100 µM |  |  |  | > 100 µM |  | > 100 µM |  | > 100 µM |  | > 100 µM |  | > 100 µM | > 100 µM | > 100 µM | 
CC(C)CC(=O)O[C@H]1C(=O)O[C@@H]2C[C@H]3[C@H](C)C(=O)C(O[C@@H]4O[C@H](CO)[C@@H](O)[C@H](O)[C@H]4O)=C[C@]3(C)[C@H]3[C@@H](O)[C@H](O)[C@]4(C(=O)O)OC[C@]32[C@@H]14 | 32.8 µM | > 100 µM | 38.7 µM | > 100 µM | 29.2 µM | 92 µM |  | > 100 µM | 27.5 µM | > 100 µM | 36.4 µM | > 100 µM |  | > 100 µM |  | > 100 µM |  |  | 
CCCN1CCCC(c2ccc(Nc3nc(Nc4cc(F)ccc4C(N)=O)c4cc[nH]c4n3)c(OC)c2)C1 (stereo not drawn) | 0.21 µM | 4.38 µM | 0.588 µM | 5.49 µM | 3.04 µM | 6.68 µM | 1.5 µM | 5.95 µM | 0.116 µM | 2.99 µM | 2.92 µM | 6 µM | 2.81 µM | 5.83 µM | 3.11 µM | 6.31 µM |  |  | 
O=C(N=Nc1c(O)[nH]c2c(Cl)cc(Cl)cc12)C(=O)Nc1cccc(C(F)(F)F)c1 |  | > 100 µM |  | > 100 µM |  | > 100 µM |  | > 100 µM |  | > 100 µM |  | > 100 µM |  | > 100 µM |  | > 100 µM |  |  | 
N#CCC1CCN(c2nc(Nc3ccc(N4CCC(O)CC4)cc3)c3c(=O)[nH]ncc3n2)CC1 | 0.345 µM | > 100 µM | 0.489 µM | > 100 µM | 0.639 µM | > 100 µM | 0.732 µM | > 100 µM | 0.692 µM | > 100 µM |  | > 100 µM | 0.267 µM | 1.88 µM | > 100 µM | > 100 µM |  |  | 
C=C1C(=O)O[C@H]2[C@H]1CC/C(COC(=O)NCc1ccc(Cn3c(=O)sn(CCCI)c3=O)cc1)=C\CC[C@@]1(C)O[C@@H]21 | 1.05 µM | 2.57 µM | 1.4 µM | 2.81 µM | 14.1 µM | 37.7 µM | 2.11 µM | 4.91 µM | 3.2 µM | 10.3 µM | 1.19 µM | 2.43 µM | 13.6 µM | 28.3 µM | 1.41 µM | 2.88 µM |  |  | 
COC(=O)[C@@H](C)C[C@H](Cc1ccccc1)NC(=O)c1nc([C@@H](C[C@H](C(C)C)N(C)C(=O)[C@@H](NC(=O)[C@H]2CC(=O)CCN2C)C(C)C)OC(C)=O)sc1C(C)C | 0.169 µM | 3.04 µM | 0.11 µM | > 16.7 µM | 0.415 µM | 2.95 µM | 0.456 µM | > 16.7 µM | 0.27 µM | > 5.85 µM | 0.0542 µM | 0.62 µM | 0.809 µM | > 16.7 µM | 0.0722 µM | > 16.7 µM |  |  | 
O=C(CC1(O)C(=O)Nc2ccc(Br)cc21)c1cccc([N+](=O)[O-])c1 (stereo not drawn) |  |  |  | > 100 µM |  | 82.5 µM |  | > 100 µM |  | > 100 µM |  | > 100 µM |  | > 100 µM |  |  |  | > 100 µM | 
CC1(C)CCC(c2ccc(Cl)cc2)=C(CN2CCN(c3ccc(C(=O)NS(=O)(=O)c4ccc(N[C@H](CCN5CCOCC5)CSc5ccccc5)c(S(=O)(=O)C(F)(F)F)c4)cc3)CC2)C1 | 1.69 µM | 3.11 µM | 1.4 µM | 2.74 µM | 1.62 µM | 3.13 µM | 1.74 µM | 3.96 µM | 1.87 µM | 3.71 µM | 1.62 µM | 3 µM | 1.28 µM | 2.68 µM | 1.43 µM | 2.92 µM |  |  | 
CCCCCCCCCCCCNC(=O)N[C@H](C(=O)N[C@H]1/C=C/OCCNC(=O)/C=C/[C@H](C(C)C)NC1=O)C(C)C | 1.67 µM | 21.7 µM | 9.4 µM | 36.4 µM | 4.53 µM | > 19.7 µM | 0.973 µM | > 100 µM | 6.16 µM | 61.3 µM | 0.568 µM | > 78.7 µM | > 75.3 µM | > 100 µM | 3.1 µM | 39 µM |  |  | 
Fc1cnccc1-c1nc2ccc3[nH]ncc3c2c2c1CCCC2 | 0.489 µM | 5.03 µM | 1.58 µM | 12.6 µM | 2.71 µM | > 100 µM | 2.22 µM | 59.9 µM | 1.41 µM | 7.74 µM | 2.46 µM | 10.9 µM | 0.342 µM | 3.66 µM | 1.44 µM | 5.75 µM |  |  | 
C/C=C/C(C/C=C(\C)CO[Si](C)(C)C(C)(C)C)O[Si](C)(C)C(C)(C)C (stereo not drawn) |  | > 100 µM |  | > 100 µM |  | > 100 µM |  | > 100 µM |  | > 100 µM |  | > 100 µM |  | > 100 µM |  | > 100 µM |  |  | 
CC(=O)Nc1ccc(/C=C/C(=O)c2sc(-n3nc(-c4ccccc4)cc3-c3ccccc3)nc2C)cc1 | > 100 µM | > 100 µM | > 100 µM | > 100 µM | > 100 µM | > 100 µM | > 100 µM | > 100 µM | > 100 µM | > 100 µM | > 100 µM | > 100 µM |  |  | > 100 µM | > 100 µM | > 100 µM | > 100 µM | > 100 µM
BrC(/C=N/Nc1nnc(-c2ccccc2)c(-c2ccccc2)n1)C(Br)c1ccccc1 (stereo not drawn) |  |  |  | > 100 µM |  | 70.4 µM |  | > 100 µM |  | > 100 µM |  | > 100 µM |  | > 100 µM |  | 53.5 µM | > 100 µM | > 100 µM | 
CC(=O)[O-].O=C([CH-]C(=O)c1ccccc1)c1ccccc1.O=C([CH-]C(=O)c1ccccc1)c1ccccc1.[Dy+3] | 5.75 µM | 23.1 µM | 12.4 µM | 30.9 µM | 3.79 µM | 15.6 µM | 9.36 µM | 37 µM | 6.66 µM | > 100 µM | 13.9 µM | 51.8 µM | 16.9 µM | 61.5 µM | 9.15 µM | 48.1 µM |  |  | 
